Measured values taken from PubChem BioAssay (NCI).
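Tested at 5 concentrations; 48 h exposure; 96-well plates; endpoints linearly interpolated, else capped at highest concentration. TGI marks complete inhibition of growth.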

Key:
Assay in all cases: inhibition of tumour cell growth, NCI panel, 48 h
[1] = system: SK-MEL-5 melanoma
[2] = system: SF-539 CNS
[3] = system: HOP-92 NSCLC
[4] = system: ACHN renal
[5] = system: TK-10 renal
[6] = system: HT29 colon
[7] = system: RXF 393 renal
[8] = system: MDA-N
[9] = system: CAKI-1 renal
[10] = system: OVCAR-3 ovarian
[11] = system: MDA-MB-231 breast
[12] = system: IGROV1 ovarian
[13] = system: BT-549 breast
[14] = system: SF-268 CNS
[15] = system: CCRF-CEM leukemia
[16] = system: HCT-116 colon
[17] = system: HL-60(TB) leukemia
[18] = system: MOLT-4 leukemia
[19] = system: A549 NSCLC
[20] = system: OVCAR-5 ovarian
[21] = system: PC-3 prostate
[22] = system: UACC-257 melanoma
[23] = system: MDA-MB-435
[24] = system: SW-620 colon
[25] = system: UACC-62 melanoma
[26] = system: NCI-H522 lung
[27] = system: NCI-H23 lung
[28] = system: LOX IMVI melanoma
[29] = system: T-47D breast
[30] = system: KM12 colon
[31] = system: SN12C renal
[32] = system: MALME-3M melanoma
[33] = system: SK-MEL-28 melanoma
[34] = system: DU-145 prostate
[35] = system: K-562 leukemia
[36] = system: SNB-19 CNS
[37] = system: SR leukemia
[38] = system: NCI-H460 lung
[39] = system: NCI-H226 lung
[40] = system: NCI/ADR-RES ovarian
[41] = system: COLO 205 colon
[42] = system: 786-0 renal
[43] = system: HS 578T breast
[44] = system: HCT-15 colon
[45] = system: MCF7 breast
[46] = system: SF-295 CNS
[47] = system: RPMI-8226 leukemia
[48] = system: EKVX NSCLC
[49] = system: OVCAR-8 ovarian
[50] = system: A498 renal
[51] = system: UO-31 renal
[52] = system: HCC-2998 colon
[53] = system: HOP-62 NSCLC
[54] = system: U251 CNS
[55] = system: M14 melanoma
[56] = system: SNB-75 CNS
[57] = system: SK-MEL-2 melanoma
[58] = system: SK-OV-3 ovarian
[59] = system: OVCAR-4 ovarian

CCOc1ccc(C2Oc3c(cccc3OC)C=C2[N+](=O)[O-])cc1OCC (stereo unspecified)
TGI [1]: 16.6 µM | TGI [2]: 5.24 µM | TGI [3]: 27 µM | TGI [4]: 14.6 µM | TGI [5]: 31.6 µM | TGI [6]: 8.11 µM | TGI [7]: 11.5 µM | TGI [8]: 5.79 µM | TGI [9]: 17.3 µM | TGI [10]: 19.6 µM | TGI [11]: 10.1 µM | TGI [12]: 11.1 µM | TGI [13]: 29.6 µM | TGI [14]: 47.2 µM | TGI [15]: 6.88 µM | TGI [16]: 3.31 µM | TGI [17]: 7.07 µM | TGI [18]: > 28.4 µM | TGI [19]: 49.4 µM | TGI [20]: 23.3 µM | TGI [21]: 14.9 µM | TGI [22]: 12.8 µM | TGI [23]: 16.7 µM | TGI [24]: 4.22 µM | TGI [25]: 23.3 µM | TGI [26]: 3.7 µM | TGI [27]: 19.7 µM | TGI [28]: 5.52 µM | TGI [29]: > 47.5 µM | TGI [30]: 20.1 µM | TGI [31]: > 67.1 µM | TGI [32]: 5.74 µM | TGI [33]: 5.74 µM | TGI [34]: 28.6 µM | TGI [35]: 5.19 µM | TGI [36]: 45.2 µM | TGI [37]: 5.6 µM | TGI [38]: 26.8 µM | TGI [39]: 46.6 µM | TGI [40]: 17.9 µM | TGI [41]: 12.8 µM | TGI [42]: 9.77 µM | TGI [43]: > 100 µM | TGI [44]: 19 µM | TGI [45]: > 100 µM | TGI [46]: 32.4 µM | TGI [47]: 6.49 µM | TGI [48]: 40 µM | TGI [49]: 4.75 µM | TGI [50]: 24 µM | TGI [51]: 8.8 µM | TGI [52]: 38.3 µM | TGI [53]: 19.2 µM | TGI [54]: 12.9 µM | TGI [55]: 7.01 µM | TGI [56]: > 56.5 µM | TGI [57]: 19.8 µM | TGI [58]: 64.9 µM | TGI [59]: 43.9 µM

COc1cc2c(cc1OCCCC(=O)Nc1cc(C(=O)Nc3cc(C(=O)Nc4cc(C(=O)NCCCN(C)C)n(C)n4)n(C)c3)n(C)c1)N=CC1CCCN1C2=O (stereo unspecified)
TGI [1]: 42.6 µM | TGI [2]: 48.5 µM | TGI [3]: 51.1 µM | TGI [4]: 40 µM | TGI [5]: 39.4 µM | TGI [6]: 44.5 µM | TGI [7]: 42.3 µM | TGI [8]: 41.4 µM | TGI [9]: 78.1 µM | TGI [10]: > 100 µM | TGI [11]: > 100 µM | TGI [12]: 49.1 µM | TGI [13]: 44.7 µM | TGI [14]: 63.1 µM | TGI [15]: > 100 µM | TGI [16]: > 100 µM | TGI [17]: 16.3 µM | TGI [18]: 32.4 µM | TGI [19]: > 100 µM | TGI [20]: > 100 µM | TGI [21]: 48.9 µM | TGI [22]: 44 µM | TGI [23]: 64.5 µM | TGI [24]: 48.6 µM | TGI [25]: 39.9 µM | TGI [26]: 4.77 µM | TGI [27]: 78.5 µM | TGI [28]: 55.5 µM | TGI [29]: > 100 µM | TGI [30]: 64.1 µM | TGI [31]: 51.3 µM | TGI [32]: 36.6 µM | TGI [33]: 33.9 µM | TGI [34]: > 100 µM | TGI [35]: 39.8 µM | TGI [36]: 49.7 µM | TGI [37]: 25.4 µM | TGI [38]: > 100 µM | TGI [39]: 51.3 µM | TGI [40]: > 100 µM | TGI [41]: > 100 µM | TGI [42]: > 100 µM | TGI [43]: 48 µM | TGI [44]: > 100 µM | TGI [45]: 58.7 µM | TGI [46]: > 100 µM | TGI [47]: 82.8 µM | TGI [48]: > 100 µM | TGI [49]: > 100 µM | TGI [50]: 57.7 µM | TGI [51]: 53 µM | TGI [52]: 76.5 µM | TGI [53]: > 100 µM | TGI [54]: 59.8 µM | TGI [55]: 72.2 µM | TGI [56]: 44.7 µM | TGI [57]: 49.9 µM | TGI [58]: > 100 µM | TGI [59]: 38.6 µM

CC1(c2ccc(Cl)cc2)NC(=NCCO)c2ccccc21 (stereo unspecified)
TGI [1]: 31 µM | TGI [2]: 27.3 µM | TGI [3]: 77.9 µM | TGI [4]: > 100 µM | TGI [5]: > 100 µM | TGI [6]: > 62.8 µM | TGI [7]: 57.9 µM | TGI [8]: 26.9 µM | TGI [9]: > 100 µM | TGI [10]: > 100 µM | TGI [11]: > 100 µM | TGI [12]: > 100 µM | TGI [13]: 99.7 µM | TGI [14]: > 100 µM | TGI [15]: 24.2 µM | TGI [16]: > 100 µM | TGI [17]: > 35.5 µM | TGI [18]: 37.8 µM | TGI [19]: > 100 µM | TGI [20]: > 100 µM | TGI [21]: > 100 µM | TGI [22]: 33.5 µM | TGI [23]: 32.6 µM | TGI [24]: > 100 µM | TGI [25]: 32.1 µM | TGI [26]: > 100 µM | TGI [27]: > 94.5 µM | TGI [28]: 32.8 µM | TGI [29]: > 48 µM | TGI [30]: > 57.3 µM | TGI [31]: > 100 µM | TGI [32]: 35 µM | TGI [33]: 30 µM | TGI [34]: > 70.8 µM | TGI [35]: 33.4 µM | TGI [36]: > 100 µM | TGI [37]: 46 µM | TGI [38]: > 84.5 µM | TGI [39]: > 100 µM | TGI [40]: > 100 µM | TGI [41]: 28.8 µM | TGI [42]: 30.4 µM | TGI [43]: > 95.1 µM | TGI [44]: > 100 µM | TGI [45]: 53.1 µM | TGI [46]: > 81.1 µM | TGI [47]: 19.5 µM | TGI [48]: > 100 µM | TGI [49]: > 100 µM | TGI [50]: 52.6 µM | TGI [51]: > 100 µM | TGI [52]: 24.8 µM | TGI [53]: > 100 µM | TGI [54]: > 100 µM | TGI [55]: 25.5 µM | TGI [56]: > 85.1 µM | TGI [57]: 37.7 µM | TGI [58]: > 100 µM | TGI [59]: > 100 µM

NC(N)=N/N=C(\c1ccc(F)cc1)c1ccc(C(F)(F)F)cc1
TGI [1]: 3.67 µM | TGI [2]: 0.749 µM | TGI [3]: 8.59 µM | TGI [4]: 10.1 µM | TGI [5]: 13.6 µM | TGI [6]: 4.98 µM | TGI [7]: 0.633 µM | TGI [8]: 0.494 µM | TGI [9]: 4.98 µM | TGI [10]: 1.59 µM | TGI [11]: 1.15 µM | TGI [12]: 1.49 µM | TGI [13]: 4.02 µM | TGI [14]: 9.96 µM | TGI [15]: 5.43 µM | TGI [16]: 1.28 µM | TGI [17]: 0.762 µM | TGI [18]: 1.44 µM | TGI [19]: 4.96 µM | TGI [20]: 9.74 µM | TGI [21]: 5.51 µM | TGI [22]: 4.63 µM | TGI [23]: 0.298 µM | TGI [24]: 2.04 µM | TGI [25]: 1.55 µM | TGI [26]: 0.525 µM | TGI [27]: 7.29 µM | TGI [28]: 1.64 µM | TGI [29]: 5.82 µM | TGI [30]: 2.04 µM | TGI [31]: 9.05 µM | TGI [32]: 2.53 µM | TGI [33]: 8 µM | TGI [34]: 7.76 µM | TGI [35]: 2.08 µM | TGI [36]: 14.3 µM | TGI [37]: 1.47 µM | TGI [38]: 2.09 µM | TGI [39]: 0.783 µM | TGI [40]: 4.35 µM | TGI [41]: 0.877 µM | TGI [42]: 1.59 µM | TGI [43]: 1.85 µM | TGI [44]: 7.45 µM | TGI [45]: 2.15 µM | TGI [46]: 0.817 µM | TGI [47]: 2.21 µM | TGI [48]: 11.3 µM | TGI [49]: 3.09 µM | TGI [50]: 0.333 µM | TGI [51]: 4.13 µM | TGI [52]: 1.75 µM | TGI [53]: 0.955 µM | TGI [54]: 4.72 µM | TGI [55]: 1.35 µM | TGI [56]: 7.77 µM | TGI [57]: 4.06 µM | TGI [58]: 4.94 µM | TGI [59]: 15.9 µM
